Active and inactive are the calls of the source.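 The calls were made as follows: active = fitted half-maximal concentration for a cytotoxic signal drop no higher than ten times the top valid dose tested; inconclusive = flat curve between -70 and -30 percent, or an unreliable fit; inactive = flat within 30 percent, signal rise, or potency beyond limit.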
Assay: viability loss in HeLa cells – cell-based, 24 h, cherry-picked samples, cytotoxicity control, dose response (AID 504726);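 also: 0% = DMSO neutral controls and -100% = mitoxantrone positive controls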
Settings: HeLa viability, CellTiter-Glo ATP luminescence, 24 h; at 35 µM (top of the series)

SMILES	activity change, negative = cytotoxicity
O=C(CC1CCCC1)N1CCN(S(=O)(=O)c2ccccc2)CC1	-13.4% (inactive)
O=C(O)c1ccc(NS(=O)(=O)c2ccc3c(c2)C2C=CCC2C(c2ccccc2F)N3)cc1 (stereo unspecified)	-8.24% (inactive)
CC(C)N(Cc1ccccc1)C(=O)Cn1c(=O)cnc2ccccc21	0.817% (inactive)
CC(Sc1nc(-c2ccco2)nc2c1c(=O)n(C)c(=O)n2C)C(=O)O (stereo unspecified)	-11% (inactive)
Oc1ccc2nnc3c(Br)cnn3c2c1	-12.1% (inactive)
Cn1c(Cl)c(C(=O)Nc2ccc(Cl)cc2)c2ccccc21	-6.51% (inactive)
CC(C)CC(=O)Nc1nnc(CSCc2ccc(F)cc2)s1	-9.25% (inactive)
COC(=O)C1CCN(C(=O)COC(=O)Cc2c[nH]c3ccccc23)CC1	-20.6% (inactive)
Cc1oc2cc(O)ccc2c(=O)c1-c1nncn1-c1ccccc1	3.87% (inactive)
Cc1sc2nnn(CC(=O)N3CCN(C(=O)c4ccco4)CC3)c(=O)c2c1C	-4.76% (inactive)
N#CCCN(CCC#N)C(=O)C1c2ccccc2Oc2ccccc21	-3.39% (inactive)
CCSc1nnc(Cc2cc(=O)[nH]c(=O)[nH]2)n1-c1ccc(F)cc1	-15.6% (inactive)
Cn1cc(C(=O)c2ccc(Cl)cc2Cl)cc1C(=O)N/N=C(\N)COc1ccccc1	-7.82% (inactive)
O=C1c2cccc3c(O)ccc(c23)C(=O)N1c1ccc(Cl)cc1	-8.83% (inactive)
COc1ccc(/C=N/NC(=O)c2ccc3nc[nH]c3c2)c(OC)c1	3.07% (inactive)
CC(OC(=O)CCN1C(=O)C2CC=CCC2C1=O)C(=O)Nc1ccc(F)cc1 (stereo unspecified)	-6.8% (inactive)
CC1CCCN(C(=O)C(=O)c2cn(CC(=O)N3CCCCCC3)c3ccccc23)C1 (stereo unspecified)	-6.83% (inactive)
COc1ccc(-c2cc(C(F)(F)F)n3ncc(C(=O)N4CCCCC4c4cccnc4)c3n2)cc1 (stereo unspecified)	-6.34% (inactive)
Cc1ccccc1NC(=S)NC(C)CCc1ccccc1 (stereo unspecified)	-9.6% (inactive)
CSc1n[nH]c(=O)n1-c1cccc(Cl)c1	12.8% (inactive)
CN(C)CCCNC(=O)c1ccccc1Oc1ccccc1	-6.34% (inactive)
NC(=O)C1=NOC(CNc2ncc(C(F)(F)F)cc2Cl)C1 (stereo unspecified)	-1.63% (inactive)

SMILES	activity change, negative = cytotoxicity
CCc1cc[n+](-c2nc([O-])sc2C=O)cc1	0.003% (inactive)
COc1ccc(/C=C/c2cc(C(F)(F)F)[nH]c(=O)n2)cc1OC	-6.08% (inactive)
O=C(CN1C(=O)NC2(CCCC2)C1=O)Nc1ccccc1-c1ccccc1	-3.7% (inactive)
CCOC(=O)C1C2C=CC3(CN(c4cccc(Cl)c4)C(=O)C13)O2 (stereo unspecified)	-5.58% (inactive)
CC(=O)OCCn1c2nc(=O)[nH]c(=O)c-2nc2cc(C)c(C)cc21	-8.08% (inactive)
CC(C)(C)OC(=O)C[C@@H]1C/C=C\C[C@H](CC(=O)N(CCO)Cc2ccccc2)C(=O)N[C@@H](c2ccccc2)COC1=O	-9.09% (inactive)
O=C(O)c1ccccc1NC(=O)c1cc(-c2ccccc2)nc2ccccc12	-2.32% (inactive)
COc1ccc(Br)cc1CNC(=O)CCCc1cn(C)c2ccccc12	-12.1% (inactive)
Nc1ccc(-c2c3ccc(=O)cc-3oc3cc(O)ccc23)cc1C(=O)O	-1.65% (inactive)
O=C(O)c1ccccc1NS(=O)(=O)c1ccc(N/N=C/c2ccc(O)c(O)c2)c([N+](=O)[O-])c1	-10.9% (inactive)
COc1cccc(C2CC(=O)Nc3cc4c(cc32)CCC4)c1 (stereo unspecified)	14.6% (inactive)
O=c1[nH]c(=O)n(C2CCCCC2)c(O)c1C=Nc1ccc(N2CCOCC2)cc1	-11.5% (inactive)
CN(C)C(=O)c1ccc(NC(=O)COC(=O)C2(c3ccccc3)CCCC2)cc1	-4.12% (inactive)
CC(C)C(C(=O)O)N1C(=O)/C(=C/C=C/c2ccco2)SC1=S (stereo unspecified)	-14.8% (inactive)
Nc1ccc2c(O)cc(S(=O)(=O)O)cc2c1	-11% (inactive)
Cc1ccc(N2CC(C(=O)Nc3nnc(SCC(=O)Nc4nc(C)cs4)s3)CC2=O)cc1 (stereo unspecified)	-3.6% (inactive)
COC(=O)c1ccccc1OCC(=O)N1CCN(c2ccc(Cl)cc2)CC1	-6.81% (inactive)
CCOC(=O)C1(Cc2cccc(F)c2)CCN(Cc2c(C)nn(CC)c2C)CC1	0.828% (inactive)
N=C1/C(=C\c2ccc(Br)o2)C(=O)N=C2SC(CC(=O)N3CCOCC3)=NN12	1.98% (inactive)
COc1[nH]c(/N=C/c2ccccc2)c(C#N)c1C#N	-1.43% (inactive)
Cc1c(C#N)c(=O)c(-[n+]2ccccc2)c([S-])n1-c1ccc(Cl)cc1	-8.57% (inactive)
CC(C)CCN1C(=O)c2cccc3c(N)ccc(c23)C1=O	-14.7% (inactive)

SMILES	activity change, negative = cytotoxicity
COc1cccc(/C=N/NC(=O)C(=O)NCc2cccnc2)c1O	-7.2% (inactive)
CC1=NN(c2cccc(C(=O)O)c2)C(=O)/C1=C\C=C\c1ccco1	-5.55% (inactive)
CN(C)c1ccc(/C=N/N(CCO)C2=NS(=O)(=O)c3ccccc32)cc1	-6.62% (inactive)
Cc1cc(-c2nnc(SCC(=O)Nc3ccccc3)n2C)no1	-3.15% (inactive)
CCOC(=O)C1Nc2ccc(C(=O)O)cc2C2C=CCC12 (stereo unspecified)	-9.32% (inactive)
COc1ccc(CC(=O)O/N=C(\N)c2ccc(OC)cc2)cc1	-11.5% (inactive)
Cn1c(=O)c(NCCc2ccccc2)c2c3c(cccc31)C(=O)c1ccccc1-2	-38.4% (inactive)
CC(Oc1ccccc1)c1nnc(N)s1 (stereo unspecified)	-3.11% (inactive)
CN(C)/C=N/c1nc2nccc(-c3ccc(Cl)cc3)n2n1	-3.67% (inactive)
Cc1ccc(NS(=O)(=O)c2ccc(C(=O)NCCCN3CCCC3=O)cc2)cc1	-5.92% (inactive)
COc1cccc(OCCCn2cc(/C=C3/C(=N)N4C=C(C)SC4=NC3=O)c3ccccc32)c1	-7.08% (inactive)
Cn1c(=O)c(NCCO)c2c3c(cccc31)C(=O)c1ccccc1-2	-6.61% (inactive)
Cc1ccccc1N1C(=O)c2cccc3c(N(C)CCO)ccc(c23)C1=O	-13.3% (inactive)
CCOc1ccc(-n2c(Cc3cc(=O)[nH]c(=O)[nH]3)nnc2SCc2cccnc2)cc1	-1.5% (inactive)
Cc1cccnc1NC1(C(F)(F)F)N=C2SCCN2C1=O (stereo unspecified)	-2.93% (inactive)
COc1ccc(C(=O)c2ccsc2N)cc1	2.38% (inactive)
CCn1c(=O)c(C(=O)NCCN2CCCCC2)c(O)c2ccccc21	1.6% (inactive)
CCN(CC)C(=S)SC1CCCCN(C(=O)c2ccccc2)C1=O (stereo unspecified)	-6.6% (inactive)
O=C(O)CC1(CC(=O)NCc2ccncc2)CCCCC1	-9.28% (inactive)
O=c1[nH]nc(CSCc2ccccc2Cl)[nH]1	-3.66% (inactive)
O=C(CCn1c(=S)oc2ccccc21)N1CCN(c2ccc(F)cc2)CC1	2.32% (inactive)
CC(=O)OCCCn1c(C)[n+](C)c2cc(Cl)c(Cl)cc21	-14.3% (inactive)

SMILES	activity change, negative = cytotoxicity
Cc1ccc(NC(=O)CN2C(=O)N/C(=C/c3cc(C)n(-c4ccc(C(=O)O)cc4)c3C)C2=O)cc1	-5.94% (inactive)
COCCNC(=O)Nc1ccc2nc(-c3ccco3)c(-c3ccco3)nc2c1	-18.1% (inactive)
CCCc1cc(=O)oc2cc(C)cc(OCC(=O)O)c12	-7.49% (inactive)
COc1cc(OC)cc(C(=O)NC2CC3CCC(C2)N3C)c1 (stereo unspecified)	3.6% (inactive)
CCC(Sc1ncccc1C(=O)O)C(=O)N1CCCC1 (stereo unspecified)	3.53% (inactive)
O=c1c2cc(O)c(O)cc2oc2cc(O)c(C3OC(CO)C(O)C(O)C3O)c(O)c12 (stereo unspecified)	3.92% (inactive)
CSCCC(NC(=O)c1ccccc1Cl)C(=O)N1CCCC(C)C1 (stereo unspecified)	-15.7% (inactive)
CCn1c(O)c(N=Nc2cccc(S(=O)(=O)N3CCOCC3)c2)c(=O)n(CC)c1=S	7.72% (inactive)
COc1ccc(N(C(=O)c2ccc(Cl)cc2)C2=CC3CCC(C2)N3C)cc1 (stereo unspecified)	-1.73% (inactive)
Nc1nnc(CC(=O)N/N=C/c2cc([N+](=O)[O-])cc(Br)c2O)s1	-8.04% (inactive)
CN1CCN(C(=S)c2ccc(N(C)C)cc2)CC1	6.8% (inactive)
Cc1ccc(C(=O)CCC(=O)Nc2ncccc2C)cc1	-3.79% (inactive)
CN(C)/C=C1\C=C2C(=O)c3ccccc3N2C1=O	-8.99% (inactive)
CCN(CC(=O)Nc1ccc(OC)cc1)C(=O)c1cc([N+](=O)[O-])ccc1N1CCOCC1	-3.5% (inactive)
Nc1c(/C=C2/C=CC(=O)C(O)=C2)c(=O)nc2sc(CC(=O)N3CCCC3)nn12	-5.49% (inactive)
O=C(C1CCCO1)N1CCN(c2ncccn2)CC1 (stereo unspecified)	-0.396% (inactive)
S=c1[nH]nc([C@@H]2C[C@H]2c2ccccc2)n1-c1ccccc1Cl	-6.51% (inactive)
CCn1c(SCc2nc3sc(C(=O)O)c(C)c3c(=O)[nH]2)nc2ccccc21	-9.24% (inactive)
CCn1c(CN2CCCCC2)nc2cc(S(=O)(=O)N3CCCCC3)ccc21	-13.7% (inactive)
COc1ccc(N=C2SC(CC(=O)Nc3ccccc3)C(=O)N2Cc2ccco2)cc1 (stereo unspecified)	-17.3% (inactive)

— PubChem BioAssay AID504726 (Broad Institute, 2011)
